Source: US20080200436A1 (priority 2004, published 2008)

Columns and labels:
VEGF RTK = conditions: cited from earlier work
LNCaP tumour xenografts = test: LNCaP Human Prostate Cancer Xenograft Model; assay type: in vivo, Swiss nude mice; conditions: for tumour volume versus orchiectomy and control groups: P<0.001 versus each group
Experimental: Six to eight-week-old Swiss nude mice were given one injection in the anterior flank with 5×10^6 tumour cells suspended in 0.1 ml of serum-free medium with the addition of 100 μl of Matrigel. Once tumours were established, mice were randomized into control and treatment groups.
Mice were examined twice a week, and tumours were measured with calipers across the greatest two diameters. At the time of euthanasia, tumours were removed by dissection away from adjacent organs and structures and weighed on an analytical balance. For histologic analysis, tissue samples were fixed in 10% neutral buffered formalin and processed through graded ethanols and xylenes for paraffin embedding and staining using standard methods. For calculation of percent necrosis, 5 random fields per tumour were examined at low power (10×) from tumours harvested at 40 days. The necrotic area(s) in each field was/were circumscribed electronically using the tools available in the ImagePro computerized image analysis package (Media Cybernetics) to create an area. A human operator carried out this identification and circling of the necrotic area for all analyzed issues. Using the total area of the section as the denominator, the percentage of necrosis was evaluated for each field. To obtain an average for a whole experimental tumour group, the percent necrosis for each field was averaged across the total number of tumours in the group.
Repeated measure models were used for the analysis of the in vivo tumour volumes. Several covariance structures, including AR- 1 and random coefficient models, were used and all yielded similar conclusions. The analyses reported herein are based on a random coefficient model with robust estimates of the covariance matrix. Specific comparisons between treatment groups were made using F-test based on contrasts. Statistical analyses were carried out in SAS PROC MIXED; the plots were prepared in GAUSS 5.0. Error bars represent one standard error from the mean. Time from treatment initiation to the time that tumour volumes exceeded a cut-off value (a tumour volume of >300 mm^3) were estimated with Kaplan-Meier curves and compared across treatment groups with the log-rank test. Tumour volume cut-offs were used to avoid using a survival endpoint, which would have involved significant animal distress and to employ a threshold that was appropriate for comparing the tumour growth data across all groups.

Q: For COc1cc2c(Nc3ccc(Br)cc3F)ncnc2cc1OCC1CCN(C)CC1 [ZD6474, 4-(4-bromo-2-fluoroanilino)-6-methoxy-7-(1-methylpiperidin-4-ylmethoxy)quinazoline], which “inhibition of VEGF RTK” value (VEGF RTK) is on record?
A: The value was “potent inhibitor”.

Q: What about the “delay before tumour growth resumed after compound withdrawal” value (LNCaP tumour xenografts; ZD6474 alone 50 mg/kg/day for 40 days, then withdrawn, normal mice) of the same compound?
A: Its value is “approximately 15 days”.

Q: What about the “tumour volume versus orchiectomy and control groups” value (LNCaP tumour xenografts; ZD6474 alone 50 mg/kg/day, after 38 days of treatment) of the same compound?
A: Its value is “significant differences in tumour volume”.

Q: What about the “tumour volume versus orchiectomy group” value (LNCaP tumour xenografts; ZD6474 alone 50 mg/kg/day, days 13 to 38 post-treatment, P<0.05) of the same compound?
A: The value was “Statistically significant differences”.

Q: And the percentage of necrosis (LNCaP tumour xenografts; ZD6474 alone, 50 mg/kg/day once daily p.o., normal mice, tumours harvested at day 40, 5 tumours, vehicle control 31±7%)?
A: Its percentage of necrosis is 48±5%.

Q: And the percentage of necrosis (LNCaP tumour xenografts; combination of orchiectomy and ZD6474 50 mg/kg/day, tumours harvested at day 40, versus 51±5% in monotherapy, P=0.01)?
A: The percentage of necrosis was 73±6%.

Q: What about the “tumour volume versus orchiectomy and control groups” value (LNCaP tumour xenografts; combination therapy group (ZD6474 50 mg/kg/day plus orchiectomy), after 38 days) of the same compound?
A: The value was “significant differences were observed”.

Q: What about the “rate of tumour growth after ZD6474 withdrawal versus untreated tumours” value (LNCaP tumour xenografts; previously ZD6474 treated tumours, delay of approximately 15 days taken into account) of the same compound?
A: Its value is “no significant difference”.
